Columns and labels:
Format in all cases: binding
CXCR3 = target: T1, CXCR3 (Homo sapiens, UniProt P49682); test: NanoBRET screen HiBiT-CXCR3 in HEK293; conditions: CXCR3
T1 construct: purchased Promega (in-house HiBiT-GPCR construct library, NanoBRET)
T1 sequence (P49682 1-368): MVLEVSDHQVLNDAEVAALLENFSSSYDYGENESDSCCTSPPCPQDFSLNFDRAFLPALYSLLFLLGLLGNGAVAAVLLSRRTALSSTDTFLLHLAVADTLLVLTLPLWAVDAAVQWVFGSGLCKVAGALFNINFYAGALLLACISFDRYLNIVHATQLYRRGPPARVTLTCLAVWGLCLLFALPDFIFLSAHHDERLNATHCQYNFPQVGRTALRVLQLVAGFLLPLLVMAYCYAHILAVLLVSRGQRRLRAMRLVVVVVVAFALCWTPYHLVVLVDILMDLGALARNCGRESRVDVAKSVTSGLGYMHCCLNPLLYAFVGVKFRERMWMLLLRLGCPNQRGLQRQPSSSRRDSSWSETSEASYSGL
Experimental: (§1) Each tracer candidate was screened across the entire library of HiBiT-GPCR constructs using NanoBRET as the detection modality. As depicted in Figure 4A, the specificity of interactions was evaluated through decrease in BRET due to competitive displacement of a bound tracer by excess parental compound. Each tracer was analyzed for binding to each HiBiT-GPCR fusion in the absence and in the presence of competing parental compound. Briefly, HEK293 cells were transfected with HiBiT-GPCR constructs diluted into promoterless DNA to reduce expression and maximize translocation to the cell surface. Each tracer candidate was then screened at concentrations of 1 μM and 0.1 μM across cells expressing these fusions. Cells were treated for 1.5 h with tracer either alone or in the presence of 20 μM competing parental compound (i.e., control). BRET was measured upon addition of purified LgBiT and subsequent complementation with HiBiT genetically fused to a GPCR. The specificity of interactions was assessed through a decrease in BRET signal due to competitive displacement of the bound tracer. To further gauge the robustness of these interactions, the fold response over the control (i.e., BRETtracer/BRETcontrol) was calculated. We chose a 1.5-fold response, which translates to ≥7-fold signal over noise as the minimal threshold required to score an interaction as positive. […]. Below we highlight the screening results obtained for our exemplary fluorescent tracers based on Clozapine, Amitriptyline and AZD1283.
(§2) HiBiT-GPCR DNA constructs were diluted in 10 mM Tris pH 8 to a final concentration of 0.01 μg/μL, arrayed in 96-well plates and stored at −20 °C. For transfection, HEK293 cells were suspended in Opti-MEM (without phenol red) supplemented with 2% fetal bovine serum (Seradigm) and 100 units/mL penicillin–streptomycin (Gibco) at a final concentration of 220,000 cells/mL and dispensed into white 96-well plates at 90 μL/well. Subsequent transfections and screens were carried using an Agilent Bravo Automated Liquid Handling Platform. First, the 96-well HiBiT DNA arrays were diluted 25-fold in Opti-MEM (without serum or phenol red) to a final concentration of 0.0004 μg/μL and 20 μL of the diluted DNAs were transferred into new 96-well plates. Next, promoterless carrier DNA (1 μg/μL) was diluted 25-fold (0.04 μg/μL) and then dispensed into the diluted arrays at 20 μL/well. Following brief mixing, Viafect transfection reagent (Promega) diluted 16-fold into Opti-MEM was dispensed into the plates at 40 μL/well. After mixing by pipetting, plates were incubated for 10 min on the pipetting station deck. The DNA-transfection reagent complexes were then added to plates containing cells. To facilitate the screen, 10 μL of DNA-transfection reagent complexes were added in duplicates to the top 4 and bottom 4 rows, resulting in two identical 48-well arrays per plate. Plates with transfected cells were incubated for 18–20 h at 37 °C/5% CO2. A screen of each tracer across the entire library using two different concentrations requires duplicate plates of transfected cells. Depending on the number of tracers being screened, transfections can be scaled up using the same ratios. The next day, for each tracer, four 20× screening solutions in tracer dilution buffer (Promega) were prepared: two duplicates at final concentration of 20 μM and two duplicates at a final concentration of 2 μM. A competing unmodified compound was added to one of each duplicate at a final concentration of 400 μM. The four resulting solutions were diluted 4-fold in Opti-MEM without serum or phenol red to generate 5× solutions (5 µM and 0.5 µM tracer +/− 100 μM competing compound). To screen the library, a BioTek MultiFlo FX liquid dispenser was used to dispense 22.5 µL of tracer solution to the top 4 rows and 22.5 µL tracer + competing compound solution to the 4 bottom rows. Plates were briefly mixed on an orbital shaker and incubated for 1.5 h at room temperature. […]

HTR4 = target: T2, HTR4 (Homo sapiens, UniProt Q13639); test: NanoBRET screen HiBiT-HTR4 in HEK293; conditions: HTR4
T2 construct: purchased Promega (in-house HiBiT-GPCR construct library, NanoBRET)
Experimental: as §1, §2

OPRK1 = target: T3, OPRK1 (Homo sapiens, UniProt P41145); test: NanoBRET screen HiBiT-OPRK1 in HEK293; conditions: OPRK1
T3 construct: purchased Promega (in-house HiBiT-GPCR construct library, NanoBRET)
Experimental: as §1, §2

HCRTR2 = target: T4, HCRTR2 (Homo sapiens, UniProt O43614); test: NanoBRET screen HiBiT-HCRTR2 in HEK293; conditions: HCRTR2
T4 construct: purchased Promega (in-house HiBiT-GPCR construct library, NanoBRET)
T4 sequence (O43614 1-444): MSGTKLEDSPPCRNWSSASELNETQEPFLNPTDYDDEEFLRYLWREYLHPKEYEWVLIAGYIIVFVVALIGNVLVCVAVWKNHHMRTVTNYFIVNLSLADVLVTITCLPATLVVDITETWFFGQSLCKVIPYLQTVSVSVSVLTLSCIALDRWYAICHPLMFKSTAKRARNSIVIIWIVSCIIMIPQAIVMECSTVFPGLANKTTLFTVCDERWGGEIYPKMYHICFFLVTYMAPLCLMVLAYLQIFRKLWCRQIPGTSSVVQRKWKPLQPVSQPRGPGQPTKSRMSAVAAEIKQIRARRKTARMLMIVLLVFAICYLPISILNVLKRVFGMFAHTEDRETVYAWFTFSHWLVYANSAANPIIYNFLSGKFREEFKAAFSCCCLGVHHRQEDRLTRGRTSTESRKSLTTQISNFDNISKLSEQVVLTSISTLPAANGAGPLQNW
Experimental: as §1, §2

NPBWR2 = target: T5, NPBWR2 (Homo sapiens, UniProt P48146); test: NanoBRET screen HiBiT-NPBWR2 in HEK293; conditions: NPBWR2
T5 construct: purchased Promega (in-house HiBiT-GPCR construct library, NanoBRET)
Experimental: as §1, §2

GCGR = target: T6, GCGR (Homo sapiens, UniProt P47871); test: NanoBRET screen HiBiT-GCGR in HEK293; conditions: GCGR
T6 construct: purchased Promega (in-house HiBiT-GPCR construct library, NanoBRET)
Experimental: as §1, §2

T3 sequence (P41145 whole entry): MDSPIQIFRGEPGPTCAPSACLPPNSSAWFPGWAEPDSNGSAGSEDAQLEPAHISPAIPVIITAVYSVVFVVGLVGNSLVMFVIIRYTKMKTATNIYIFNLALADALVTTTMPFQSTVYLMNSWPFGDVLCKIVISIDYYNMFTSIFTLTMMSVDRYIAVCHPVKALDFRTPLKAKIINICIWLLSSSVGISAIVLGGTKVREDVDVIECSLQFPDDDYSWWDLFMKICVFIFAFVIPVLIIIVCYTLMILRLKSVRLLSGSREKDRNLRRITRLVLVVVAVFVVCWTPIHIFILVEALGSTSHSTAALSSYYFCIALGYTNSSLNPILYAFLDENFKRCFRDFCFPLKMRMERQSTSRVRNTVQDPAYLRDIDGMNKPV
T6 sequence (P47871 26-477): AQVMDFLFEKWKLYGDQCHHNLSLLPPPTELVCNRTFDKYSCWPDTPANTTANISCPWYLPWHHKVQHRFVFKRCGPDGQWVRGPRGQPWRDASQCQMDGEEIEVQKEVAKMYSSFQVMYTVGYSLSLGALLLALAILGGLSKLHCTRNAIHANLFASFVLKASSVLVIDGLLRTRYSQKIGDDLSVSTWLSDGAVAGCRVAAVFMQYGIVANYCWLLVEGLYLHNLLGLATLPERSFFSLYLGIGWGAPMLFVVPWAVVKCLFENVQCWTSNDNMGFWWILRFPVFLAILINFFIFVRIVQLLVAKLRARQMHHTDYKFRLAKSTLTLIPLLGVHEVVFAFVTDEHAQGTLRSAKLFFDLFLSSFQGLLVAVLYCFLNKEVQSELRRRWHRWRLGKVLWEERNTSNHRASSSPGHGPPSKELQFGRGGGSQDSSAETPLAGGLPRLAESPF
T5 sequence (P48146 whole entry): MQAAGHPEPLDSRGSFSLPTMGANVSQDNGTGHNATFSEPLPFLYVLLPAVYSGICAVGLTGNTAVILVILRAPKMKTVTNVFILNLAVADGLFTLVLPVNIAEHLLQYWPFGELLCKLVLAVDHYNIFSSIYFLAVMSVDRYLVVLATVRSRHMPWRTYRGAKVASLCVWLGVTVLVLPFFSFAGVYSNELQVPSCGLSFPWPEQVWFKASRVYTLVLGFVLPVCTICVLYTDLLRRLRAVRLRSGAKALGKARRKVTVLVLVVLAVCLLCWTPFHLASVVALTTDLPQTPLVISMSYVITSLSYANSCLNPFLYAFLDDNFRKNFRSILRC
T2 sequence (Q13639 whole entry): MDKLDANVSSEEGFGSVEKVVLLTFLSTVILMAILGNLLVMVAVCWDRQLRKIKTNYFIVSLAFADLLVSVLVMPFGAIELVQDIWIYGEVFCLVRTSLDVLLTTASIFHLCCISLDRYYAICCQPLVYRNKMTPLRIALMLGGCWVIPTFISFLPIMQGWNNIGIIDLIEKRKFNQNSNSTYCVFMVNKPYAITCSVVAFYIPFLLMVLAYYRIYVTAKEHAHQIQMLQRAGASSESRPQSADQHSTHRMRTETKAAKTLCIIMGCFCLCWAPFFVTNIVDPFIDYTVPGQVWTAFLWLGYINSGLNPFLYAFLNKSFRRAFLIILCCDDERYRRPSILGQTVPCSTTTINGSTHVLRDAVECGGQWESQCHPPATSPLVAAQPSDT

| SMILES | NanoBRET Fold Response (CXCR3; 0.1μM tracer) | NanoBRET Fold Response (CXCR3; 1μM tracer) | NanoBRET Fold Response (HTR4; 0.1μM tracer) | NanoBRET Fold Response (HTR4; 1μM tracer) | NanoBRET Fold Response (OPRK1; 0.1μM tracer) | NanoBRET Fold Response (OPRK1; 1μM tracer) | NanoBRET Fold Response (HCRTR2; 0.1μM tracer) | NanoBRET Fold Response (HCRTR2; 1μM tracer) | NanoBRET Fold Response (CXCR3; tracer 0.1μM) | NanoBRET Fold Response (CXCR3; tracer 1μM) | NanoBRET Fold Response (HTR4; tracer 0.1μM) | NanoBRET Fold Response (HTR4; tracer 1μM) | NanoBRET Fold Response (OPRK1; tracer 0.1μM) | NanoBRET Fold Response (OPRK1; tracer 1μM) | NanoBRET Fold Response (HCRTR2; tracer 0.1μM) | NanoBRET Fold Response (HCRTR2; tracer 1μM) | NanoBRET Fold Response (NPBWR2; tracer 0.1μM) | NanoBRET Fold Response (NPBWR2; tracer 1μM) | NanoBRET Fold Response (GCGR; tracer 0.1μM) | NanoBRET Fold Response (GCGR; tracer 1μM) | also measured |
| --- | --- | --- | --- | --- | --- | --- | --- | --- | --- | --- | --- | --- | --- | --- | --- | --- | --- | --- | --- | --- | --- |
| O=C(CCc1ccc2n1[B-](F)(F)[N+]1=C(c3ccc[nH]3)C=CC1=C2)NCc1ccc(C(=O)NCCOCCOCCNCC(O)COc2cccc3ccccc23)cc1 (stereo not drawn) [Propranolol-3-NB590] | – | – | – | – | – | – | – | – | – | – | – | – | – | – | – | – | – | – | – | – | NanoBRET Fold Response (CXCR3; 0.1μM): 0.99; NanoBRET Fold Response (CXCR3; 1μM): 0.90; NanoBRET Fold Response (HTR4; 0.1μM): 1.26; NanoBRET Fold Response (HTR4; 1μM): 1.41; NanoBRET Fold Response (OPRK1; 0.1μM): 1.08; NanoBRET Fold Response (OPRK1; 1μM): 1.02; NanoBRET Fold Response (HCRTR2; 0.1μM): 1.09; NanoBRET Fold Response (HCRTR2; 1μM): 1.00; NanoBRET Fold Response (NPBWR2; 0.1μM): 1.05; NanoBRET Fold Response (NPBWR2; 1μM): 1.05; NanoBRET Fold Response (GCGR; 0.1μM): 1.03; NanoBRET Fold Response (GCGR; 1μM): 0.96 |
| CN1CCN(C2=Nc3cc(Cl)ccc3N(CC(=O)NCCOCCOCCOCCOCCNC(=O)CCc3ccc4n3[B-](F)(F)[N+]3=C(c5ccc[nH]5)C=CC3=C4)c3ccccc32)CC1 [Clozapine-c-2-NB590] | 1.01 | 0.76 | 1.02 | 1.07 | 1.01 | 0.90 | 0.97 | 1.04 | – | – | – | – | – | – | – | – | – | – | – | – | NanoBRET Fold Response (NPBWR2; 0.1μM tracer): 0.97; NanoBRET Fold Response (NPBWR2; 1μM tracer): 0.98; NanoBRET Fold Response (GCGR; 0.1μM tracer): 0.99; NanoBRET Fold Response (GCGR; 1μM tracer): 1.02 |
| O=C(CCc1ccc2n1[B-](F)(F)[N+]1=C(c3ccc[nH]3)C=CC1=C2)NCc1ccc(C(=O)NCCOCCC(=O)N[C@@H]2CC[C@@]3(O)[C@H]4Cc5ccc(O)c6c5[C@@]3(CCN4CC3CC3)[C@H]2O6)cc1 [Naltrexone-3-NB590] | – | – | – | – | – | – | – | – | 1.39 | 0.78 | 0.97 | 1.05 | 2.19 | 1.53 | 1.04 | 1.01 | 1.05 | 1.04 | 1.06 | 0.92 | – |
| CC(C)N(CC[C@H](c1ccccc1)c1cc(CCNC(=O)CCOCCOCCOCCOCCNC(=O)CCc2ccc3n2[B-](F)(F)[N+]2=C(c4ccc[nH]4)C=CC2=C3)ccc1O)C(C)C [Tolterodine-2-NB590] | – | – | – | – | – | – | – | – | 1.87 | 1.01 | 0.92 | 1.00 | 1.12 | 0.95 | 1.04 | 1.00 | 1.41 | 0.83 | 1.32 | 1.04 | – |
| Cc1nc2n(c(=O)c1CCN1CCC(c3noc4cc(F)ccc34)CC1)CCCC2OC(=O)NCCOCCOCCOCCOCCNC(=O)CCc1ccc2n1[B-](F)(F)[N+]1=C(c3ccc[nH]3)C=CC1=C2 (stereo not drawn) [Risperidone-2-NB590] | – | – | – | – | – | – | – | – | 1.06 | 0.91 | 1.08 | 1.51 | 0.96 | 0.99 | 0.98 | 0.96 | 1.05 | 1.00 | 0.97 | 0.93 | – |
| O=C(CCOCCOCCOCCOCCNC(=O)CCc1ccc2n1[B-](F)(F)[N+]1=C(c3ccc[nH]3)C=CC1=C2)NCCCN1CCN(C2=Nc3cc(Cl)ccc3Nc3ccccc32)CC1 [Clozapine-a-2-NB590] | 1.02 | 1.22 | 1.02 | 1.12 | 1.01 | 0.97 | 1.05 | 1.16 | – | – | – | – | – | – | – | – | – | – | – | – | NanoBRET Fold Response (NPBWR2; 0.1μM tracer): 1.04; NanoBRET Fold Response (NPBWR2; 1μM tracer): 0.89; NanoBRET Fold Response (GCGR; 0.1μM tracer): 0.94; NanoBRET Fold Response (GCGR; 1μM tracer): 1.14 |

From PMC8151276, “An Integrated Approach toward NanoBRET Tracers for Analysis of GPCR Ligand Engagement” (Molecules, 2021)
